# Like-named read-outs stand apart in the source and are kept apart here. Marks after values point to notes of the source that are not given here.
# Columns and labels:
# Crj: CD(SD)IGS rats [1] = details: male, rat, in vivo, 3 days
# Protocol: (§1) The following 10 kinds of commercially available drugs were examined as the test compounds for a potential of inducing PLsis by histopathological examination and peripheral blood lymphocyte testing.
# (§2) The following experiments were performed using the prematurely autopsied animals.
# (§3) The high-dose dosing suspension was diluted about 3 fold and 10 fold with dispersant/solvent to prepare intermediate- and low-dose dosing suspensions. […] [For LD50, the Summary Basis of Approval (FDA) for each drug was referenced to.]
# (§4) The animals were examined for mortality, general conditions, body weight, food consumption and the like using PM4800 (Mettler) and EB3200D (Shimadzu Corporation).
# Hematological examination was performed for parameters such as RBC count, hematocrit, hemoglobin concentration, mean corpuscular hemoglobin (MCH), mean corpuscular hemoglobin concentration (MCHC), mean corpuscular volume (MCV), platelet count, WBC count, reticulocyte count, differential WBC, and vacuolated lymphocyte ratio (for PLsis-inducing compounds only) using ADVIA120 (Bayer Medical Ltd.) and E-4000 (Sysmex Corporation).
# Crj: CD(SD)IGS rats [2] = details: rat, in vivo
# Protocol: as §1, §2, §3, §4
# [3] = from Summary Basis of Approval (FDA); species and route not given; cited from earlier work
# Crj: CD(SD)IGS rats [4] = experiment: Urinary PAG/hippuric acid ratio by 1H NMR in rats; details: rat urine; for PAG + hippuric acid/creatinine / PAG/PAG + hippuric acid / PAG/creatinine (first term of PAG + hippuric acid) / PAG/hippuric acid / hippuric acid/creatinine (second term of PAG + hippuric acid): 3 days, mean n = 3-4
# Crj: CD(SD)IGS rats [5] = details: rat, gavage once daily for 3 days; printed on the line of the lowest dose, dose group unclear
# Protocol: Each test drug was administered by gavage at a dosing liquid volume of 10 mL/kg/day once daily for 3 days (4 days for the negative control). The animals were examined for mortality, general conditions, body weight, food consumption and the like using PM4800 (Mettler) and EB3200D (Shimadzu Corporation).
smiles,measurement,setting,value
"CN(C)CCCN1c2ccccc2Sc2ccc(Cl)cc21 [Chlorpromazine, chlorpromazine]",Mean vacuolated lymphocyte ratio,Crj: CD(SD)IGS rats [1]; 100 mg/kg/day,2%
same,Mean vacuolated lymphocyte ratio,Crj: CD(SD)IGS rats [1]; 300 mg/kg/day,2%
same,Mean vacuolated lymphocyte ratio,Crj: CD(SD)IGS rats [1]; 1000 mg/kg/day,1%
same,PLsis positivity by histopathological examination or vacuolated lymphocyte testing,Crj: CD(SD)IGS rats [2],could not be determined
same,Histopathological changes (PLsis): Liver,Crj: CD(SD)IGS rats [2]; 100 mg/kg/day,−
same,Histopathological changes (PLsis): Lung,Crj: CD(SD)IGS rats [2]; 100 mg/kg/day,−
same,Histopathological changes (PLsis): Lymph node,Crj: CD(SD)IGS rats [2]; 100 mg/kg/day,−
same,Histopathological changes (PLsis): Others,Crj: CD(SD)IGS rats [2]; 100 mg/kg/day,−
same,Histopathological changes (PLsis): Spleen,Crj: CD(SD)IGS rats [2]; 100 mg/kg/day,−
same,Histopathological changes (PLsis): Liver,Crj: CD(SD)IGS rats [2]; 300 mg/kg/day,−
same,Histopathological changes (PLsis): Lung,Crj: CD(SD)IGS rats [2]; 300 mg/kg/day,−
same,Histopathological changes (PLsis): Lymph node,Crj: CD(SD)IGS rats [2]; 300 mg/kg/day,−
same,Histopathological changes (PLsis): Others,Crj: CD(SD)IGS rats [2]; 300 mg/kg/day,−
same,Histopathological changes (PLsis): Spleen,Crj: CD(SD)IGS rats [2]; 300 mg/kg/day,−
same,Histopathological changes (PLsis): Liver,Crj: CD(SD)IGS rats [2]; 1000 mg/kg/day,−
same,Histopathological changes (PLsis): Lung,Crj: CD(SD)IGS rats [2]; 1000 mg/kg/day,−
same,Histopathological changes (PLsis): Lymph node,Crj: CD(SD)IGS rats [2]; 1000 mg/kg/day,−
same,Histopathological changes (PLsis): Others,Crj: CD(SD)IGS rats [2]; 1000 mg/kg/day,−
same,Histopathological changes (PLsis): Spleen,Crj: CD(SD)IGS rats [2]; 1000 mg/kg/day,−
same,LD50,[3],145 mg/kg
same,PAG + hippuric acid/creatinine,Crj: CD(SD)IGS rats [4]; 100 mg/kg/day by gavage,1.45
same,PAG/PAG + hippuric acid,Crj: CD(SD)IGS rats [4]; 100 mg/kg/day by gavage,12.80%
same,PAG/creatinine (first term of PAG + hippuric acid),Crj: CD(SD)IGS rats [4]; 100 mg/kg/day by gavage,0.18
same,PAG/hippuric acid,Crj: CD(SD)IGS rats [4]; 100 mg/kg/day by gavage,14.93%
same,hippuric acid/creatinine (second term of PAG + hippuric acid),Crj: CD(SD)IGS rats [4]; 100 mg/kg/day by gavage,1.27
same,PAG + hippuric acid/creatinine,Crj: CD(SD)IGS rats [4]; 300 mg/kg/day by gavage,1.63
same,PAG/PAG + hippuric acid,Crj: CD(SD)IGS rats [4]; 300 mg/kg/day by gavage,12.57%
same,PAG/creatinine (first term of PAG + hippuric acid),Crj: CD(SD)IGS rats [4]; 300 mg/kg/day by gavage,0.21
same,PAG/hippuric acid,Crj: CD(SD)IGS rats [4]; 300 mg/kg/day by gavage,14.51%
same,PAG + hippuric acid/creatinine,Crj: CD(SD)IGS rats [4]; 1000 mg/kg/day by gavage,0.86*
same,PAG/PAG + hippuric acid,Crj: CD(SD)IGS rats [4]; 1000 mg/kg/day by gavage,42.20* %
same,PAG/creatinine (first term of PAG + hippuric acid),Crj: CD(SD)IGS rats [4]; 1000 mg/kg/day by gavage,0.30
same,PAG/hippuric acid,Crj: CD(SD)IGS rats [4]; 1000 mg/kg/day by gavage,104.13* %
same,hippuric acid/creatinine (second term of PAG + hippuric acid),Crj: CD(SD)IGS rats [4]; 1000 mg/kg/day by gavage,0.56
same,PAG/hippuric acid ratio or PAG/(PAG+hippuric acid) ratio,"Crj: CD(SD)IGS rats [4]; high-dose administration group, 3-day administration",remarkable increase
NC12CC3CC(CC(C3)C1)C2 [Amantadine],death (note beside the dose),Crj: CD(SD)IGS rats [5],(death)
same,PAG + hippuric acid/creatinine,Crj: CD(SD)IGS rats [4]; 75 mg/kg/day by gavage,1.44
same,PAG/PAG + hippuric acid,Crj: CD(SD)IGS rats [4]; 75 mg/kg/day by gavage,16.17%
same,PAG/creatinine (first term of PAG + hippuric acid),Crj: CD(SD)IGS rats [4]; 75 mg/kg/day by gavage,0.23
same,PAG/hippuric acid,Crj: CD(SD)IGS rats [4]; 75 mg/kg/day by gavage,19.31%
same,PAG + hippuric acid/creatinine,Crj: CD(SD)IGS rats [4]; 250 mg/kg/day by gavage,1.21
same,PAG/PAG + hippuric acid,Crj: CD(SD)IGS rats [4]; 250 mg/kg/day by gavage,16.18%
same,PAG/creatinine (first term of PAG + hippuric acid),Crj: CD(SD)IGS rats [4]; 250 mg/kg/day by gavage,0.20
same,PAG/hippuric acid,Crj: CD(SD)IGS rats [4]; 250 mg/kg/day by gavage,19.69%
same,hippuric acid/creatinine (second term of PAG + hippuric acid),Crj: CD(SD)IGS rats [4]; 250 mg/kg/day by gavage,1.02
same,PAG + hippuric acid/creatinine,Crj: CD(SD)IGS rats [4]; 750 mg/kg/day by gavage,0.37
same,PAG/PAG + hippuric acid,Crj: CD(SD)IGS rats [4]; 750 mg/kg/day by gavage,56.58%
same,PAG/creatinine (first term of PAG + hippuric acid),Crj: CD(SD)IGS rats [4]; 750 mg/kg/day by gavage,0.21
same,PAG/hippuric acid,Crj: CD(SD)IGS rats [4]; 750 mg/kg/day by gavage,130.33%
same,hippuric acid/creatinine (second term of PAG + hippuric acid),Crj: CD(SD)IGS rats [4]; 750 mg/kg/day by gavage,0.16

# From patent US7399638B2, “Prediction method for lipidosis” (Takeda Pharmaceutical Company Limited, priority 2003, dated 2008)
